# Square brackets hold non-standard residues; d marks the D form. * marks the point of attachment. pGlu = O=C1CC[C@@H](C(=O)O)N1; Octanoyl = CCCCCCCC(=O)*
# System: HCl induced pain
# Assay: Analgesic assay: licks after subcutaneous HCl injection following topical ointment
# Format: in vivo, hamsters
# Procedure: In each test, a few tens of hamsters of similar weight and age were used. The hamsters were divided into groups according to the number of samples to be tested. Ointment (50% Lanolin and 50% Vaseline) containing the tested substance was applied to the animal's fur on the back region. The fur was not removed so as to ensure that no damage to the skin occurred. A control group of hamsters was treated with ointment without the fraction of the invention. Hamsters were treated by topical application for 6, 14, 21 or 28 consecutive days. The test for analgesity was conducted following the last application of the ointment. In an alternate protocol, analgesity was tested following a single application of the ointment.
# Subsequently to application of the ointment, the hamsters “clean” themselves by dispersing the ointment all over their body with their tongue and legs. Thus, some of the ointment is introduced into the oral cavity and possibly also into the intestine of the hamsters.
# In a typical test, a constant amount of ointment with or without an analgesic substance is applied to each animal for a predetermined period of one or more days. Following this period, pain is induced by a subcutaneous injection of 0.5 ml of 1N HCl/0.1 kg body weight in the femur region. The hamsters respond to the HCl injection by touching the area of injection with the tongue, this being called a “lick”. 20 minutes after injection the hamster is observed for 60 min and the number of “licks” are counted. The number of “licks” serves as a quantitative indication of the HCl induced pain.
# The analgesic effect is determined by comparing the mean number of “licks” in control animals to the number in treated animals. The significance of the difference was determined using t-test statistics.
# 0.6 mg of pENW, pENWK-C8 or pENWGAT (a dimer of pENW) were dissolved in 5 ml of DDW, mixed by an ultrasonic mixer for 2 minutes and then dissolved in […] of ointment. The final peptide concentration was 0.002 mg/gr.
# 6 applications were made over a period of 4 weeks. The test for analgesity was conducted 10 days following the last application of the ointment.
# Compositions at a concentration of 0.020 mg/g were prepared as in Example 1 containing the following active ingredients: pENW, pEEW, or pENTW or pENWT. 6 applications were made over a period of 5 weeks. The results are summarized below:
# A composition containing pENW—C8 at a concentration of 0.002 mg/g ointment was prepared as in Example 1. A single application was made to the animals, and analgesity was assayed 11, 23 and 48 days post-application. Ointment without an active substance was applied to the control animals.
# [1] = Example 2: 0.020 mg/g in ointment, topical, 6 applications over 5 weeks, control 117
# [2] = Example 1: 0.002 mg/gr in ointment, topical, 6 applications over 4 weeks, tested 10 days after last application, control 113.9
Substance,mean number of licks [1],"mean number of licks (Example 3: 0.002 mg/g ointment, single application, 11 days post application, control 106)","mean number of licks (Example 3: 0.002 mg/g ointment, single application, 23 days post application, control 106)","mean number of licks (Example 3: 0.002 mg/g ointment, single application, 48 days post application, control 106)",mean number of licks [2]
pGLU-GLU-TRP—OH [pEEW],35,,,,
pGlu-Asn-Trp-O-octyl [pENW—C8],,66,35.7,62.4,
pGLU-ASN-TRP-LYS(octanoyl)-OH ([pGlu]NWK(Octanoyl)-OH; SMILES CCCCCCCC(=O)NCCCC[C@H](NC(=O)[C@H](Cc1c[nH]c2ccccc12)NC(=O)[C@H](CC(N)=O)NC(=O)[C@@H]1CCC(=O)N1)C(=O)O) [pENWK-C8],,,,,37.9
pGLU-ASN-TRP—OH [pENW],44,,,,59.7
